Test results published in patent US10501482B2, “Compounds for treating spinal muscular atrophy” (Hoffmann-La Roche Inc., priority 2013, dated 2019).
Structures can show the parent of a compound that is named as a salt.

System: SMN protein
Test: SMN protein assay (HTRF) in cultured SMA patient fibroblast cells
Type: cell-based
Settings: SMA Type 1 human fibroblasts GM03813, 48 hours; for EC1.5x SMN protein (EC1.5x concentration for SMN protein expression): 7-point concentration curve, concentration giving 1.5 times SMN protein vs vehicle; for max. fold increase (maximum fold increase of SMN protein): 7-point concentration data, fold vs vehicle control
Description: The SMN HTRF (homogeneous time resolved fluorescence) assay is used to quantify the level of SMN protein in SMA patient fibroblast cells treated with test compounds.
Cells are thawed and cultured in DMEM-10% FBS for 72 hours. Cells are trypsinized, counted and re-suspended to a concentration of 25,000 cells/mL in DMEM-10% FBS. The cell suspensions are plated at 5,000 cells per well in a 96 well microtiter plate and incubated for 3 to 5 hours. […] 1 μL of test compound solution is transferred to cell-containing wells and cells are incubated for 48 hours in a cell culture incubator (37° C., 5% CO2, 100% relative humidity). Triplicate samples are set up for each test compound concentration. After 48 hours, the supernatant is removed from the wells and 25 μL of the RIPA lysis buffer, containing protease inhibitors, is added to the wells and incubated with shaking at room temperature for 1 hour. 25 μL of the diluent is added and then 35 μL of the resulting lysate is transferred to a 384-well plate, where each well contains 5 μL of the antibody solution (1:100 dilution of anti-SMN d2 and anti-SMN kryptate in SMN reconstitution buffer). The plate is centrifuged for 1 minute to bring the solution to the bottom of the wells, then incubated overnight at room temperature. Fluorescence for each well of the plate at 665 nm and 620 nm is measured on an EnVision multilabel plate reader (Perkin-Elmer).
The normalized fluorescence signal is calculated for each sample, Blank and vehicle control well by dividing the signal at 665 nm by the signal at 620 nm. Normalizing the signal accounts for possible fluorescence quenching due to the matrix effect of the lysate. The ΔF value (a measurement of SMN protein abundance as a percent value) for each sample well is calculated by subtracting the normalized average fluorescence for the Blank control wells from the normalized fluorescence for each sample well, then dividing this difference by the normalized average fluorescence for the Blank control wells and multiplying the resulting value by 100. The ΔF value for each sample well represents the SMN protein abundance from test compound-treated samples. The ΔF value for each sample well is divided by the ΔF value for the vehicle control wells to calculate the fold increase in SMN protein abundance relative to the vehicle control. Table 3 provides EC1.5x concentrations for SMN protein expression that was obtained from the 7-point concentration data generated according to the above procedure for particular compounds of the present invention.
Table 4 provides the maximum fold increase of SMN protein that was obtained from the 7-point concentration data generated according to the above procedure for particular compounds of the present invention

Structure (SMILES) | EC1.5x SMN protein (EC1.5x concentration for SMN protein expression) [µM] | max. fold increase (maximum fold increase of SMN protein)
Cc1nc2c(F)cc(NC(=O)c3ccc(N4CCN5CCC[C@H]5C4)cc3F)cc2o1 [Example 33, (S)-2-Fluoro-N-(4-fluoro-2-methyl-benzooxazol-6-yl)-4-(S)-hexahydro-pyrrolo[1,2-a]-pyrazin-2-yl-benzamide] | 0.5703 | 1.7541
Cc1cn2cc(NC(=O)c3ccc(N4CCNCC4)nc3)cc(F)c2n1 [Example 41, N-(8-tluoro-2-methylimidazo-[1,2-a]pyridin-6-yl)-6-(piperazin-1-yl)nicotinamide dihydrochloride] | 0.0508 | 1.7973
CCOc1cc(N2CCNCC2)ncc1C(=O)Nc1cc(F)c2nc(C)cn2c1 [Example 70, 4-ethoxy-N-(8-fluoro-2-methylimidazo[1,2-a]pyridin-6-yl)-6-(piperazin-1-yl)nicotinamide] | 0.0187 | 1.933
